Experimental findings from ChEMBL document CHEMBL1150714, “1,3,7-Trimethylguanine from the Sponge Latrunculia brevis” (J Nat Prod, 1987) are described below.

In this experiment the test system is P388. Description: Cytotoxicity against mouse P388 cells. It counts as functional, cell-based.

`Cn1c(=O)c2c(ncn2C)n(C)c1=N` registered an EC50 of over 10 mg/L.
